For six compounds, Activity and viability results are on record in ChEMBL document CHEMBL5357002, “Heterodimers of Aromadendrane Sesquiterpenoid with Benzoquinone from the Chinese Liverwort Mylia nuda” (J Nat Prod, 2024).

Data set [1] has as its system SH-SY5Y. The data set can be described thus: Cytoprotective activity against glutamic acid induced injury in human SH-SY5Y cells assessed as increase in cell viability at 10 to 20 uM by MTT assay. Type of data set: functional, cell-based. Conditions: dose 10-20 µM. (Tetrazolium assays rely on reduction of a dye to a coloured formazan, in cell work by metabolically active cells.)

Data set [2] relates to SH-SY5Y. As to the kind of experiment: Induction of apoptosis in human SH-SY5Y cells assessed as early apoptotic cells incubated for 24 hrs by Annexin V-FITC/PI staining based based flow cytometry analysis (reference value: 0.03%). It counts as toxicity, cell-based.
Data set [3] concerns SH-SY5Y. As to the kind of experiment: Induction of apoptosis in glutamic acid induced human SH-SY5Y cells assessed as viable cells incubated for 24 hrs by Annexin V-FITC/PI staining based flow cytometry analysis (reference value: 61.55%). It counts as functional. (A flow cytometer gives signals particle by particle.)
Data set [4] concerns SH-SY5Y. The data set can be described thus: Induction of apoptosis in human SH-SY5Y cells assessed as late apoptotic cells incubated for 24 hrs by Annexin V-FITC/PI staining based flow cytometry analysis (reference value: 0.04%). Type of data set: toxicity, cell-based.
The test system of data set [5] is SH-SY5Y. As to the kind of experiment: Induction of apoptosis in glutamic acid induced human SH-SY5Y cells assessed as early apoptotic cells incubated for 24 hrs by Annexin V-FITC/PI staining based flow cytometry analysis (reference value: 34.60%). It counts as functional.
For data set [6], the system named is SH-SY5Y. As to the kind of experiment: Cytoprotective activity against glutamic acid induced injury in human SH-SY5Y cells assessed as improvement in cell morphology at 10 uM by immunofluorescence analysis. It counts as functional, cell-based.
Data set [7] relates to SH-SY5Y. The data set can be described thus: Induction of apoptosis in human SH-SY5Y cells assessed as necrotic cells incubated for 24 hrs by Annexin V-FITC/PI staining based flow cytometry analysis (reference value: 0.06%). Type of data set: toxicity, cell-based.
For data set [8], the system named is SH-SY5Y. The data set can be described thus: Induction of apoptosis in glutamic acid induced human SH-SY5Y cells assessed as necrotic cells incubated for 24 hrs by Annexin V-FITC/PI staining based flow cytometry analysis (reference value: 3.64%). It counts as functional.
For data set [9], the system named is SH-SY5Y. The data set can be described thus: Induction of apoptosis in glutamic acid induced human SH-SY5Y cells assessed as late apoptotic cells incubated for 24 hrs by Annexin V-FITC/PI staining based flow cytometry analysis (reference value: 0.21%). It counts as functional.
Data set [10] relates to SH-SY5Y. As to the kind of experiment: Cytoprotective activity against glutamic acid induced injury in human SH-SY5Y cells assessed as decrease in ROS level at 10 uM by DCFH-DA staining based flow cytometry. Type of data set: functional, cell-based.
A short description of data set [11]: Induction of apoptosis in human SH-SY5Y cells assessed as viable cells incubated for 24 hrs by Annexin V-FITC/PI staining based flow cytometry analysis (reference value: 99.87%). It counts as toxicity, cell-based. As to conditions: read-out: Activity.

Structures are written as SMILES. The source made the active and inactive calls. No cut-off for these calls is given here.

For `COc1ccc(OC2=C(C)C(=O)[C@H]3[C@@H](C2=O)[C@@H]2C[C@H]3C(C)=C2[C@@H]2[C@H](CCC(C)=O)C2(C)C)cc1C`, the result in the data set on SH-SY5Y [1] was Active.
For the compound `COc1ccc(OC2=C(C)C(=O)[C@@H]3[C@H](C2=O)[C@H]2C[C@@H]3C([C@@H]3[C@H](CCC(C)=O)C3(C)C)=C2C)cc1C`, the result in the data set on SH-SY5Y [1] was Active.
On the same count and under the same terms, in the case of `COc1ccc(OC2=C(C)C(=O)[C@H]3[C@@H](C2=O)[C@@H]2C[C@H]3C([C@@H]3[C@H](CCC(C)=O)C3(C)C)=C2C)cc1C` it was “Active”.
As for `COc1ccc(OC2=C(C)C(=O)[C@@H]3[C@H](C2=O)[C@H]2C[C@@H]3C(C)=C2[C@@H]2[C@H](CCC(C)=O)C2(C)C)cc1C`, the outcome with SH-SY5Y [1], in the data set on SH-SY5Y [6] and in the data set with SH-SY5Y [10] was Active. Besides, the Activity was 0.39% in the data set on SH-SY5Y [2]; 81.11% in the data set with SH-SY5Y [3]; 0.08% in the data set with SH-SY5Y [4]; 14.23% in the data set on SH-SY5Y [5]; 3.59% in the data set with SH-SY5Y [7]; 4.49% in the data set on SH-SY5Y [8]. Moreover, the Activity in the data set on SH-SY5Y [9] was 0.17%. Besides, the viability at 24 h in data set [11] was found to be 96%.
Consider `COc1ccc(OC2=C(C)C(=O)[C@H]3[C@@H](C2=O)[C@@H]2C[C@@]3(C)C([C@@H]3[C@H](CCC(C)=O)C3(C)C)=C2C)cc1C`, for which, in the data set on SH-SY5Y [1], the outcome was Active.
Turning to `COc1ccc(OC2=C[C@@H]3C(=O)[C@](C)(C2=O)[C@@]2(C)C([C@@H]4[C@H](CCC(C)=O)C4(C)C)=CC[C@@H]32)cc1C`, the outcome in the data set on SH-SY5Y [1] was Active.
